From US20090196912A1, “Pyridinylamines” (GPC Botech AG, priority 2004, published 2009)

target: CDK1/CyclinB (Homo sapiens, UniProt P06493); assay: Generic kinase assay (33P-ATP, Myelin Basic Protein); type: biochemical; details: class symbol: % inhibition at 10 μM or IC50
Protocol: (§1) In order to determine the inhibitory effect of the compounds of the subject invention on various target enzymes a generic kinase assay was established.
(§2) Reactions were performed in 96-Well U-bottom microtiter plates (Greiner Bio-One; Frickenhausen/Germany, Cat. No. 650161), hereinafter designated “Assay Plates”. 10 μl of a solution comprising 40 μM Myelin Basic Protein (Invitrogen; Carlsbad, Calif./USA; Cat. No. 13228-010) and 4 μM ATP in three-fold concentrated Reaction Buffer (60 mM Tris-HCl, pH 7.5; 30 mM MgCl2; 3 mM dithiothreitol) were added into each well of the Assay Plate. 10 μl of serial dilutions of the compounds of the subject invention, dissolved in 4% DMSO, were then added into each well, except for Positive Control. Wells (C+ wells) and Negative Control Wells (C− wells). 10 μl of 4% DMSO without compounds were added to C+ and C− wells. 10 μl of a 500 mM solution of EDTA in water was then added to C− wells. Then 10 μl of a solution containing 50 μCi/ml Adenosine 5′-[γ-^33P]triphosphate in water was added to each well. To start the reaction 10 μl of the kinase to be assayed was added to each well. The optimal amount of kinase in the assay was determined to be the amount which yields to a turn-over of about 10% of ATP. Assay Plates were incubated for one hour at room temperature. Then 10 μl of a 500 mM solution of EDTA in water was added to each well except C− wells. Samples were now ready for measurement.
(§3) Measurements were preformed in 96-Well MAPH-Filter Plates (Millipore; Billerica, Mass./United States; Cat. No. MAPHNOB50), hereinafter designated “Measurement Plates”. Measurement Plates were washed with 200 μl of a 0.75% H3PO4 solution per well. The H3PO4 solution was exhausted using a Millipore vacuum station. 60 μl of a 0.75% H3PO4 solution was then added into each well, followed by the transfer of 30 μl of each well from the Assay Plate into the corresponding wells of the Measurement Plate. The Measurement Plate was incubated for 30 minutes at room temperature. Thereafter each well was washed three times with 200 μl of a 0.75% H3PO4 solution using a Millipore vacuum station. 20 μl of scintillation liquid (Supermix Liquid Szintillator; Perkin Elmer, Wellesley. Mass./United States; Cat. No. 1200-439) was then added to each well of the Measurement Plate. The plate was sealed and stored for 30 minutes in the darkness before radioactivity was quantified in a MicroBeta Scintillation Counter (Perkin Elmer, Wellesley. Mass./United States).

Chain of CDK1/CyclinB (P06493 whole entry, species assumed): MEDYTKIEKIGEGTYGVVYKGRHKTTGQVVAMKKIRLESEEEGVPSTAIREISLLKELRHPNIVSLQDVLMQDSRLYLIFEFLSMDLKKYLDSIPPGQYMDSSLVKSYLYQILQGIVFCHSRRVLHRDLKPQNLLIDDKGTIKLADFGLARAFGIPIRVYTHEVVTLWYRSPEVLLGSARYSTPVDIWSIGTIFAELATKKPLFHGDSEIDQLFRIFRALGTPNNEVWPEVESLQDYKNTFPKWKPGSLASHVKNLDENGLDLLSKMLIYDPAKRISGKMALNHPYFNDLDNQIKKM
Chain of CDK1/CyclinB (P14635 whole entry partner, species assumed): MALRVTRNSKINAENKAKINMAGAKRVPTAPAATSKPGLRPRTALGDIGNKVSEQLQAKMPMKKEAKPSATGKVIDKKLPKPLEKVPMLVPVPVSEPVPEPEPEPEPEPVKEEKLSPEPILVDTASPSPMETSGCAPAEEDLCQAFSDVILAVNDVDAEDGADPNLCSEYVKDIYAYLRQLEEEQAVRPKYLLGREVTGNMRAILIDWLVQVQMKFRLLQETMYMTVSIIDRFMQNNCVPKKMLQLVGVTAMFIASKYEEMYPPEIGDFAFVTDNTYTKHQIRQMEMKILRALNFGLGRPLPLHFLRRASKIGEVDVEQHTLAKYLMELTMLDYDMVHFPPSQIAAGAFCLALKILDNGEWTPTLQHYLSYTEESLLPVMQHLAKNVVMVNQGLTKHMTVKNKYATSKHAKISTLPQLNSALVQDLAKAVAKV

Structure (SMILES) | Inhibitory effect on target CDK1/CyclinB
CC(=O)Nc1cccc(-c2cncc(Nc3ccc(C#N)cc3)c2)c1 [Compound 205, N-{3-[5-(4-Cyano-phenylamino)-pyridin-3-yl]-phenyl}-acetamide] | A (A: 50-90% inhibition at 10 μM enzyme concentration)
CC(=O)Nc1cccc(-c2cncc(Nc3ccccc3F)c2)c1 [Compound 237, N-{3-[5-(2-Fluoro-phenylamino)-pyridin-3-yl]-phenyl}-acetamide] | A (A: 50-90% inhibition at 10 μM enzyme concentration)

target: CDK5/p35 (Homo sapiens, UniProt Q00535); assay: as above; type: biochemical; details: class symbol: % inhibition at 10 μM or IC50
Protocol: as §1, §2, §3

Chain of CDK5/p35 (Q00535 whole entry, species assumed): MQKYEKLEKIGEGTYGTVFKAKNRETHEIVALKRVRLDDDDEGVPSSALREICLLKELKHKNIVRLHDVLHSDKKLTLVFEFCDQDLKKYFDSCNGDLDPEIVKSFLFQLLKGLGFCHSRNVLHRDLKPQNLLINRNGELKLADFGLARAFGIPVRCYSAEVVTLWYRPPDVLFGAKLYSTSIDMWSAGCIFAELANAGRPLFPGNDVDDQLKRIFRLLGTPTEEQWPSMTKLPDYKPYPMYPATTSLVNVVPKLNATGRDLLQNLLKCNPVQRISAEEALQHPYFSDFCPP
Chain of CDK5/p35 (Q15078 whole entry partner, species assumed): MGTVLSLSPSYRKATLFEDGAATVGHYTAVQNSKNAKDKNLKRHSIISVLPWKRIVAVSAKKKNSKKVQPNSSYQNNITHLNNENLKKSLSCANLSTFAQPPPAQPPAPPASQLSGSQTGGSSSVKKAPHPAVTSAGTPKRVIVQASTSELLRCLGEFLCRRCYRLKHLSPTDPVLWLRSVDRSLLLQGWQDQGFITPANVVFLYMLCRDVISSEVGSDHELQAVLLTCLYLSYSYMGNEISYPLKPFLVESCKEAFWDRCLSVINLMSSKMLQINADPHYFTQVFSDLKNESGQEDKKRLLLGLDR

Structure (SMILES) | Inhibitory effect on target CDK5/p35
CC(=O)Nc1cccc(-c2cncc(Nc3ccc(C#N)cc3)c2)c1 [Compound 205, N-{3-[5-(4-Cyano-phenylamino)-pyridin-3-yl]-phenyl}-acetamide] | A (A: 50-90% inhibition at 10 μM enzyme concentration)

target: EGFR (Homo sapiens, UniProt P00533); assay: as above; type: biochemical; details: class symbol: % inhibition at 10 μM or IC50
Protocol: as §1, §2, §3

Chain of EGFR (P00533 25-1210, species assumed): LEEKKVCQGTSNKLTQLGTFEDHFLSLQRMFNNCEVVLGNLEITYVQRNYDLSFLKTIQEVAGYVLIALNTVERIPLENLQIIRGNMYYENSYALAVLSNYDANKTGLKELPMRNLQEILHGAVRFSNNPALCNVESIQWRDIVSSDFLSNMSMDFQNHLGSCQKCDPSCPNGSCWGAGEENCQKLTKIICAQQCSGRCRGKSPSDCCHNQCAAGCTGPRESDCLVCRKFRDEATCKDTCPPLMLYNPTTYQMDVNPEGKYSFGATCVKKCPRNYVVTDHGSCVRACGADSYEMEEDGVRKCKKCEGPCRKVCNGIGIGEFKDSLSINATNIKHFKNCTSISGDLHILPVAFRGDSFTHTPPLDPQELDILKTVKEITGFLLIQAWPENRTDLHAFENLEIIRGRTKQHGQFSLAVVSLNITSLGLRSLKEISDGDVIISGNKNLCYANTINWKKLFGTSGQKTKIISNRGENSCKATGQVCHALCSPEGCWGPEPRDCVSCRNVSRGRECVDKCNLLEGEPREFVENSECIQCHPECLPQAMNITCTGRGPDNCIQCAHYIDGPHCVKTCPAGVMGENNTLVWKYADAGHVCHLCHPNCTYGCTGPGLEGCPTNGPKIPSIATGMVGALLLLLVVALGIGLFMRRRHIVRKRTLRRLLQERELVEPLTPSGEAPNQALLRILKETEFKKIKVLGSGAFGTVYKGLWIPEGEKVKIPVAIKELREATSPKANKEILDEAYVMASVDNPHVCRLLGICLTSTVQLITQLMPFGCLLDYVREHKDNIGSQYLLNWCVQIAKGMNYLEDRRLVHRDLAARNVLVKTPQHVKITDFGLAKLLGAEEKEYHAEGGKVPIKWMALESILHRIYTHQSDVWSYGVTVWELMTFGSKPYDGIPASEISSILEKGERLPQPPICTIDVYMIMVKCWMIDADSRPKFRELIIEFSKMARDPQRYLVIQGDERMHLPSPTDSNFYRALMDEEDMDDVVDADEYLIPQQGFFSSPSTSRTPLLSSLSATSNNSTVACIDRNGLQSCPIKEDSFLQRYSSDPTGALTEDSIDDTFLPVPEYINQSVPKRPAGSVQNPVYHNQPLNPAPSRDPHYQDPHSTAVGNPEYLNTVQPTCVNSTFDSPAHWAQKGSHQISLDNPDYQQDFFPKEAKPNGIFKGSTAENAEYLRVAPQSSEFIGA

Structure (SMILES) | Inhibitory effect on target EGFR
CC(=O)Nc1cccc(-c2cncc(Nc3ccccc3F)c2)c1 [Compound 237, N-{3-[5-(2-Fluoro-phenylamino)-pyridin-3-yl]-phenyl}-acetamide] | A (A: 50-90% inhibition at 10 μM enzyme concentration)

target: T1, IKKb (Homo sapiens, UniProt O14920); assay: as above; type: biochemical; details: class symbol: % inhibition at 10 μM or IC50
T1 sequence (O14920 1-756): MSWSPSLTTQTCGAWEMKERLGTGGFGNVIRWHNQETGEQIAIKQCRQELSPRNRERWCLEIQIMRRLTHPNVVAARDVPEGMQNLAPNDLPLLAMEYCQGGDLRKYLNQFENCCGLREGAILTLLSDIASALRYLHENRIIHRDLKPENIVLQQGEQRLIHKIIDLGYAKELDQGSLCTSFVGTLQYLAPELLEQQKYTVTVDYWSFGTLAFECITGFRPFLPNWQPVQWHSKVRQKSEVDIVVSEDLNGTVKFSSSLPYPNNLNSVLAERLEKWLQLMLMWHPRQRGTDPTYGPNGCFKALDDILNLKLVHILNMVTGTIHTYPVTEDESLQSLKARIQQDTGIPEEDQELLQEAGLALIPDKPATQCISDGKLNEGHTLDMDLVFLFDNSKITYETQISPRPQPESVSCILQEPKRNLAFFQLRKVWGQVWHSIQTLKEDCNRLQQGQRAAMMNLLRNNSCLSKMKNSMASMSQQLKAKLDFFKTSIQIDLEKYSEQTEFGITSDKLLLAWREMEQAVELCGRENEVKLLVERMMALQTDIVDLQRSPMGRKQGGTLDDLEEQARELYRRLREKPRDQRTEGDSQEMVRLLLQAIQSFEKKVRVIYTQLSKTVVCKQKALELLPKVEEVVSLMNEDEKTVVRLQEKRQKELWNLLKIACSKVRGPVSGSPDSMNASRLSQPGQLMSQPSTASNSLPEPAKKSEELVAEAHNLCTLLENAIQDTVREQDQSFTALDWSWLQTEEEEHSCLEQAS
Protocol: as §1, §2, §3

Structure (SMILES) | Inhibitory effect on target IKKb
CC(=O)Nc1cccc(-c2cncc(Nc3ccc(C#N)cc3)c2)c1 [Compound 205, N-{3-[5-(4-Cyano-phenylamino)-pyridin-3-yl]-phenyl}-acetamide] | A (A: 50-90% inhibition at 10 μM enzyme concentration)
CC(=O)Nc1cccc(-c2cncc(Nc3ccccc3F)c2)c1 [Compound 237, N-{3-[5-(2-Fluoro-phenylamino)-pyridin-3-yl]-phenyl}-acetamide] | A (A: 50-90% inhibition at 10 μM enzyme concentration)

system: PDGFR; assay: as above; type: biochemical; details: class symbol: % inhibition at 10 μM or IC50
Protocol: as §1, §2, §3

Structure (SMILES) | Inhibitory effect on target PDGFR
CC(=O)Nc1cccc(-c2cncc(Nc3ccc(C#N)cc3)c2)c1 [Compound 205, N-{3-[5-(4-Cyano-phenylamino)-pyridin-3-yl]-phenyl}-acetamide] | A (A: 50-90% inhibition at 10 μM enzyme concentration)
CC(=O)Nc1cccc(-c2cncc(Nc3ccccc3F)c2)c1 [Compound 237, N-{3-[5-(2-Fluoro-phenylamino)-pyridin-3-yl]-phenyl}-acetamide] | A (A: 50-90% inhibition at 10 μM enzyme concentration)

target: RICK (Homo sapiens, UniProt O43353); assay: as above; type: biochemical; details: class symbol: % inhibition at 10 μM or IC50
Protocol: as §1, §2, §3

Chain of RICK (O43353 whole entry, species assumed): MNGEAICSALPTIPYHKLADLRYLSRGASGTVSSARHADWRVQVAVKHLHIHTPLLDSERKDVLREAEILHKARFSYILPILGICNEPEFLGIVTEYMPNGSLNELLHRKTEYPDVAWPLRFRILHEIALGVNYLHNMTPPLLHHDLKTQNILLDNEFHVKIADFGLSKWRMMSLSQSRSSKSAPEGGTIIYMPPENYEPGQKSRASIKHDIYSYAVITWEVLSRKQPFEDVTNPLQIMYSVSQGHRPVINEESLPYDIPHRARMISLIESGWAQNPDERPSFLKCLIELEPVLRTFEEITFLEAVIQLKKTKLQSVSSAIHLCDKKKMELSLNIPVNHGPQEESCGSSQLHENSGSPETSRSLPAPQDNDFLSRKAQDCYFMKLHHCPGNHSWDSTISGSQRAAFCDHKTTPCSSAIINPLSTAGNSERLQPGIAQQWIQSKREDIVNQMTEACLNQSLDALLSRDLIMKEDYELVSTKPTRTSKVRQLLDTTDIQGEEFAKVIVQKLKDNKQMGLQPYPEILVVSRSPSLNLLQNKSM

Inhibitory effect on target RICK | Structure (SMILES)
C (C: IC50 measured: <1 μM) | Nc1cccc(CNc2cncc(-c3cccc(O)c3)c2)c1 [Compound 245, 3-[5-(3-Amino-benzylamino)-pyridin-3-yl]-phenol]
C (C: IC50 measured: <1 μM) | CN(Cc1cccc(O)c1)c1cncc(-c2cccc(O)c2)c1 [Compound 241, 3-{5-[(3-Hydroxy-benzyl)-methyl-amino]-pyridin-3-yl}-phenol]
C (C: IC50 measured: <1 μM) | CC(=O)Nc1cccc(-c2cncc(Nc3ccc(C#N)cc3)c2)c1 [Compound 205, N-{3-[5-(4-Cyano-phenylamino)-pyridin-3-yl]-phenyl}-acetamide]
C (C: IC50 measured: <1 μM) | CC(=O)Nc1cccc(-c2cncc(Nc3ccccc3F)c2)c1 [Compound 237, N-{3-[5-(2-Fluoro-phenylamino)-pyridin-3-yl]-phenyl}-acetamide]

target: ROCK 2 (Homo sapiens, UniProt O75116); assay: as above; type: biochemical; details: 1 h; class symbol: % inhibition at 10 μM or IC50; read-out: Inhibitory effect on target ROCK 2
Protocol: as §1, §2, §3

inhibition at 10 µM | Structure (SMILES)
50 to 90% | CN(Cc1cccc(O)c1)c1cncc(-c2cccc(O)c2)c1 [Compound 241, 3-{5-[(3-Hydroxy-benzyl)-methyl-amino]-pyridin-3-yl}-phenol]

target: UL97 (Human cytomegalovirus, UniProt P16788); assay: as above; type: biochemical; details: class symbol: % inhibition at 10 μM or IC50
Protocol: as §1, §2, §3

Chain of UL97 (P16788 whole entry): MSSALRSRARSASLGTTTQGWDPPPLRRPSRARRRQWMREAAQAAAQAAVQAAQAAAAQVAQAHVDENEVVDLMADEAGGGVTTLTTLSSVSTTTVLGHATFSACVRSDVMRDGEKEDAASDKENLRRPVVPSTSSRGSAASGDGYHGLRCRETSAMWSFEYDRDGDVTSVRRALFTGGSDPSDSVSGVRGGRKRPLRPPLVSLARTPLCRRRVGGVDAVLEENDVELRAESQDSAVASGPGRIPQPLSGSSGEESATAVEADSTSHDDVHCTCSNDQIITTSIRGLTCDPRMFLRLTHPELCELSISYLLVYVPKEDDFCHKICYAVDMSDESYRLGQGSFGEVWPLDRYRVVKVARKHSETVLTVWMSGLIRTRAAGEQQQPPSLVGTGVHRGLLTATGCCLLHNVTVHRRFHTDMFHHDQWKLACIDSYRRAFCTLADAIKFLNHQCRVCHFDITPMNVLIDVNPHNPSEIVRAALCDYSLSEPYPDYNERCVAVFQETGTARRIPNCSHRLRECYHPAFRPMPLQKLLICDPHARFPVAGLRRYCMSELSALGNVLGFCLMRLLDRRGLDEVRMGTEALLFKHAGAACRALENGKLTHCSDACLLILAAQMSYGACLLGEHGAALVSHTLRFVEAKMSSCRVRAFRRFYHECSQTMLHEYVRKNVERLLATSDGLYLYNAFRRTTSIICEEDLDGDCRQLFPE

Inhibitory effect on target UL97 | Structure (SMILES)
C (C: IC50 measured: <1 μM) | Nc1cccc(CNc2cncc(-c3cccc(O)c3)c2)c1 [Compound 245, 3-[5-(3-Amino-benzylamino)-pyridin-3-yl]-phenol]
C (C: IC50 measured: <1 μM) | CN(Cc1cccc(O)c1)c1cncc(-c2cccc(O)c2)c1 [Compound 241, 3-{5-[(3-Hydroxy-benzyl)-methyl-amino]-pyridin-3-yl}-phenol]

target: cRaf (Homo sapiens, UniProt P04049); assay: as above; type: biochemical; details: 1 h; class symbol: % inhibition at 10 μM or IC50; read-out: Inhibitory effect on target cRaf
Protocol: as §1, §2, §3

Chain of cRaf (P04049 whole entry, species assumed): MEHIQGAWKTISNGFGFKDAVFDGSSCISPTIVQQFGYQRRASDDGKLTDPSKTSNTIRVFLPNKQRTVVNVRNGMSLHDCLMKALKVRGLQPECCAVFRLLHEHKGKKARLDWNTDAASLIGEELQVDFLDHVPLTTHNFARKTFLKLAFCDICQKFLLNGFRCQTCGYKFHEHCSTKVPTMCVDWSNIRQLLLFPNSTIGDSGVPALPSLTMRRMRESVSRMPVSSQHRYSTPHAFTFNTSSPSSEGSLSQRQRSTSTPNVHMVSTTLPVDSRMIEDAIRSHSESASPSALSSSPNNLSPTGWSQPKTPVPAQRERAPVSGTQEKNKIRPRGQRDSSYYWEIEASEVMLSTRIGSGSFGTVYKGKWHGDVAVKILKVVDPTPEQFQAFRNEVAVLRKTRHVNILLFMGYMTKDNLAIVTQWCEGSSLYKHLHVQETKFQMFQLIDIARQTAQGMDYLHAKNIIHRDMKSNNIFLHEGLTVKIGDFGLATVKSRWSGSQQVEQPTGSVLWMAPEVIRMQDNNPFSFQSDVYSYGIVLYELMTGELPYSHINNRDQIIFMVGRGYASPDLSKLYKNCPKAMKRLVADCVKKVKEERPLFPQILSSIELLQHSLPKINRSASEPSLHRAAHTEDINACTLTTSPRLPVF

inhibition at 10 µM | Structure (SMILES)
50 to 90% | Nc1cccc(CNc2cncc(-c3cccc(O)c3)c2)c1 [Compound 245, 3-[5-(3-Amino-benzylamino)-pyridin-3-yl]-phenol]
